1 sequence from patent US12390552B2, “Self-assembling peptide gel formulation and methods of use” (Arch Biosurgery, Inc., priority 2020, dated 2025) can be followed below.

Entries after “also recorded” stand apart in the source; their conditions may differ.

For data set [1], the system named is stomach and esophagus of pigs (submucosal space). In words: Submucosal cushion/lift and hemostasis in endoscopic resection procedures in a porcine model. It is filed as in vivo. The method, then: Solutions of (RADA)4 (RADARADARADARADA; SEQ ID NO: 1) in water were prepared. Concentrations of (RADA)4 (SEQ ID NO: 1) were between from 1% and 3% w/v. Methylene blue or indigo carmine dye (0.1 to 0.4%) was added to the solution in some experiments, and excluded from the solution in other experiments.
Pigs were randomly assigned to control or experimental groups. Animals were anesthetized. Multiple (>20) endoscopic procedures (EMD and ESD) were performed in different areas of the stomach of pigs, including the pylorus, and the esophagus, including the sphincter. In some experiments, polyps had previously been created by applying bands to the mucosa.
The (RADA)4 (SEQ ID NO: 1) solutions (experimental animals) or saline or ELEVIEW™ (control animals) were administered into the submucosal space through 2.2 mm channel diameter, 230 cm long catheters that have either 25 gauge needle tips or spray tips on the end to form a cushion. In some experiments, catheters having different diameters were used as well as multiple internal channels. The products were delivered from a prefilled syringe or mixed from a kit prior to delivery.

The nature of data set [2]: Gel formation of (RADA)4 solutions mixed with dextran sulfate solution. The format is physicochemical. To be noted: 1%-3% solutions mixed with dextran sulfate solution (0.5 and 1%).

With RADARADARADARADA [(RADA)4], the “duration of submucosal lift” value in data set [1] (pig gastric antrum, delivered through 25G endoscopic injection needle) is greater than 2 h. Further, the “use with clips as sealant at post-polypectomy site” value in data set [1] (pig, applied following application of clips) is “useful in conjunction with clips as a potential sealant”. Further, in data set [1] (pig, applied topically or injected into mucosa near the bleeding site, with or without visualizing agent), the “hemostasis in actively bleeding lesions” value is given as “provide hemostasis in actively bleeding lesions; also recorded: stopped bleeding promptly, typically within seconds”. The “durability of cushions versus controls” value in data set [1] (pig, compared with ELEVIEW™ and saline) is “lasting longer than ELEVIEW™ and saline controls”. Besides, the “bleeding after polyp removal / tissue resection” value in data set [1] (pig, submucosal injection before dissection (prophylactic hemostasis)) is “no visible bleeding was observed following polyp removal; also recorded: minimal to no bleeding in most lesions was observed”. Besides, in data set [1] (pig, submucosal tunnel through cushion), the “time over which the tunnel opening could easily be found after removing and reinserting equipment” value is listed as “typically more than an hour”. The gel formation result in data set [2] is “formed space occupying gels”.
